Data reported in US12570606B2, “Myeloperoxidase imaging agents” (The General Hospital Corporation, priority 2016, dated 2026).
Read-outs that look alike come from different tables or passages of the source.

Assays:
[1] = biological target: T1, MPO (Homo sapiens, UniProt P05164); assay: MPO-PET matrigel implantation imaging in mice; assay type: in vivo, mouse
T1 sequence (P05164 49-745): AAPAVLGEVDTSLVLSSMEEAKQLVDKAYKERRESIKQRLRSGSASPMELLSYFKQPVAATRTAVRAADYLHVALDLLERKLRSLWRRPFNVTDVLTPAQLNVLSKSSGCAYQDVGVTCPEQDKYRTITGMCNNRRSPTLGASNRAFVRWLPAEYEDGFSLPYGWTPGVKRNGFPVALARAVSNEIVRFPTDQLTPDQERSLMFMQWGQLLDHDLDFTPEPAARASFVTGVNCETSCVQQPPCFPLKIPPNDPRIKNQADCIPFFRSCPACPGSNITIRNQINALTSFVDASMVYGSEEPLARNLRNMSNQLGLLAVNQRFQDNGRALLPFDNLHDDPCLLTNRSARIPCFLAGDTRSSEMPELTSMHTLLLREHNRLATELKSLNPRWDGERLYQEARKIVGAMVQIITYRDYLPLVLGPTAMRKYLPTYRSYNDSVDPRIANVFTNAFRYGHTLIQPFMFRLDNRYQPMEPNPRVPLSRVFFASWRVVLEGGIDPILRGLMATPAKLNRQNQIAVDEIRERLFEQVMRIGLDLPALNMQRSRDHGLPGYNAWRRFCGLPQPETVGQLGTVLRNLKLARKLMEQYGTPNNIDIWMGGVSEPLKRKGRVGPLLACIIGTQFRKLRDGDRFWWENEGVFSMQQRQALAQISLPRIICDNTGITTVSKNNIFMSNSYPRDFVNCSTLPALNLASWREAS
Experimental: 300 μL of 1:1 mixture of matrigel and minimal essential medium (MEM) containing GOX and/or different concentrations of MPO (0, 15 μL, 30 μL) was injected subcutaneously into the ventral aspect of the thighs of the mouse. After 30 min, 300-600 μCi of MPO Compound 9 was injected intravenously. After 2 h, the mice were scanned using PET scanning.
To validate the efficacy of the MPO PET agents for in vivo applications, matrigel implantation experiments were performed by embedding MPO in matrigel along with glucose oxidase (GOX) as H2O2 donor. Matrigel is a gelatinous protein mixture that is liquid at 0° C. but forms a gel at body temperature while remaining diffusible to molecules from the bloodstream when injected into living animals (see e.g., Chen et al, Radiology, 2006, 240(2):473-481). The MPO/matrigel mixtures were injected subcutaneously to the thighs of the mice followed by injection of the MPO PET tracers 30 min later. […] The signal of MPO side was around 1.7 fold higher compared to that of control side.
To verify the specificity of Compound 9 over MPO, different concentrations of MPO (0, 15 μL, 30 μL) were embedded in matrigel for the implantation experiments.

[2] = Pharmacokinetics and biodistribution after i.v. injection; assay type: in vivo, wild-type C57BL/6 mice; conditions: for half-life: C57BL/6, mouse, blood, iv, i.v. tail vein
Experimental: The pharmacokinetic and biodistribution of Compound 9 was evaluated in wild-type C57BL/6 mice. After systemic intravenous (i.v.) injection via the tail vein, blood samples were collected to determine clearance rate of Compound 9 from the blood. The major organs of the mouse were harvested and the radioactivity was measured.

[3] = Dynamic PET study of Compound 9 over 3 hours; assay type: in vivo, mouse; conditions: dynamic study over 3 hours
[4] = Blood brain barrier assay, PET brain uptake; assay type: in vivo, Female C57Bl/6J mice
Experimental: Female C57Bl/6J mice were injected intravenously with either 3′-deoxy-3′-^18F-fluorothymidine (FLT) or Compound 9 (300-600 μCi). The mice were imaged 2 hours after the PET tracers were injected.

[5] = biological target: T2, MPO (Mus musculus, UniProt P11247); assay: CFA paw inflammation PET imaging and treatment by MPO inhibitor PF-1355; assay type: in vivo; design: from tissue; host or cells: inflamed forepaw of living mice (CFA); conditions: forepaw, 24 h after CFA emulsion, scan 2 h after tracer
T2 sequence (P11247 139-718): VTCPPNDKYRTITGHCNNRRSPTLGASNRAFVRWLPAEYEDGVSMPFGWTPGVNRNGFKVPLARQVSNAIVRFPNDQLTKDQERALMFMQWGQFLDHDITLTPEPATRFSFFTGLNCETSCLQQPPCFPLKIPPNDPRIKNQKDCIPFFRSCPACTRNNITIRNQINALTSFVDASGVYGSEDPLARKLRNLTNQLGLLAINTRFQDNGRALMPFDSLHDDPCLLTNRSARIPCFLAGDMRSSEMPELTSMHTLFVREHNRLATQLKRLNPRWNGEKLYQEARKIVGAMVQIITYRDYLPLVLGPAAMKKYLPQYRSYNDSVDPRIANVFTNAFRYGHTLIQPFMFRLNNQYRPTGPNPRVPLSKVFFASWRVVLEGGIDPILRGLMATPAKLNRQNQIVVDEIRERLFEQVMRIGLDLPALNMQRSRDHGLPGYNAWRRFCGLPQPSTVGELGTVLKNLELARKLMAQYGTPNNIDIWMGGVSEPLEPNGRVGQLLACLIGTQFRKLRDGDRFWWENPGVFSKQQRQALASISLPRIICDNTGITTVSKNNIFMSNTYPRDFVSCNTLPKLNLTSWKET
Experimental: Each pair contained one treated and one untreated, number of pairs, n=3. The 1/1 emulsion of CFA/PBS (40 μL) was injected subcutaneously on the dorsal side of one forepaw under isoflurane anesthesia, and PBS (40 μL) was injected on the other forepaw as control. After 1 h, the treated group was given PF-1355 (50 mg/kg) by gavage, then treated every 6 h for another 3 times, and the control group was treated with vehicle (10 mL/kg) accordingly. After 24 h, 300-600 uCi of Compound 9 was injected intravenously. After another 2 h, each pair of the mice was scanned side by side.
After validating the efficacy of the MPO Compound 9 in matrigel experiments, the specificity of the agent in inflammation was investigated. Complete Freund's Adjuvant (CFA) or its emulsion can cause inflammation when injected subcutaneously to the animal. The CFA emulsion was injected to one dorsal side of the forepaw of the mouse and the other side was injected with PBS. After 24 h, Compound 9 was injected intravenously and scanned 2 h after injection. […] To further verify the specificity of the MPO Compound 9, the mice were treated with MPO inhibitor PF-1355 1 h after CFA emulsion injection and continuously every 6 h afterwards for 4 times before injecting the Compound 9. The control group was treated with vehicle after CFA injection. Then each pair of the mice from treated and untreated groups were scanned.

O=C(Cc1c[nH]c2ccc(O)cc12)NC(Cc1c[nH]c2ccc(O)cc12)C(=O)NCCOCCOCC[18F] (centres unmarked) [Compound 9]
PET signal versus MPO concentration ([1]; MPO 0, 15 μL, 30 μL embedded in matrigel): linear increase in signal
Background, organ uptake and defluorination ([1]; matrigel PET imaging in mice): high ratio of signal to background, lower liver and heart uptake and no observed defluorination
PET signal of MPO side compared to control side ([1]; matrigel with GOX+MPO vs GOX only in mouse thighs, scan 2 h after i.v. tracer): around 1.7 fold
half-life ([2]; two-phase exponential decay model, read-out: Blood short (fast) half-life): 0.26 min
half-life ([2]; two-phase exponential decay model, read-out: Blood slow half-life): 4.66 min
Biodistribution of radioactivity in organs ([2]; major organs harvested after i.v. injection): the liver and kidney showed the highest radioactivity, followed by bone and lymph
Share of clearance accounted for by the fast half-life ([2]; two-phase exponential decay model): 94.7%
Blood-brain barrier crossing (brain data) [3]: can cross the blood-brain barrier
Uptake in the brain (SUV, FIG. 12) ([4]; 300-600 μCi i.v., imaged 2 hours after injection): higher uptake in the brain compared to FLT
Crossing of the blood brain barrier ([4]; intact BBB): can cross intact BBB
PET signal of CFA side versus vehicle (PBS) injected side [5]: 4 fold
